Assays:
Wilson's disease = settings: cited from earlier work
[1] = system: DXR induced cardiotoxicity and myocardial fibrosis; assay: Trientine mouse doxorubicin study; format: in vivo, mice
Protocol: Mice and mouse food. All mice were 7-8 weeks old at the start of the various studies, were C57BL/6 purchased from Jackson Laboratory, Bar Harbor, Me., and were housed at 21±2° C. on a 12 hr light/dark cycle in polycarbonate cages containing corn cob bedding. Experimental animals were housed in the University of Michigan Unit for Laboratory Animal Medicine facility and treated in accord with a protocol approved by the University of Michigan Institutional Animal Care and Use Committee. They were fed a mouse diet from Harlan/Teklad, Madison, Wis., to which copper and zinc had not been added by the manufacturer. […] Copper and zinc are then added to the diet such that the final contents were 2 mg copper and 10 mg zinc/kg of food.
Trientine mouse doxorubicin study. The copper chelator trientine was studied and compared to TM to determine the effects, if any, of trientine on DXR induced cardiotoxicity and myocardial fibrosis in mice using doses of trientine by oral gavage to lower the Cp to target range.
(§1) Assay Methods. Cp was measured by the oxidase enzyme using known methods. Troponin I, LDH, and CK MB were measured by kit methods using known methods.
(§2) Statistical Analysis. For the comparison of means analysis of variance (ANOVA) was used. All data in the figures are given as means+the standard error.

[2] = system: doxorubicin model of heart damage; assay: Zinc vs. TM therapy mouse doxorubicin study; format: in vivo, C57BL/6 mice; settings: for day 4 troponin I plasma level: FIG. 2; for day 4 CK MB plasma level: FIG. 3; for plasma Cp at day 0 (day of DXR administration): after pretreatment to lower Cp
Protocol: (§3) Mice and mouse food. All mice were 7-8 weeks old at the start of the various studies, were C57BL/6 purchased from Jackson Laboratory, Bar Harbor, Me., and were housed at 21±2° C. on a 12 hr light/dark cycle in polycarbonate cages containing corn cob bedding. Experimental animals were housed in the University of Michigan Unit for Laboratory Animal Medicine facility and treated in accord with a protocol approved by the University of Michigan Institutional Animal Care and Use Committee. They were fed a mouse diet from Harlan/Teklad, Madison, Wis., to which copper and zinc had not been added by the manufacturer. Each lot was assayed by atomic absorption and found to contain about 0.6 mg of copper and about 6.0 mg of zinc/kg of food. Copper and zinc are then added to the diet such that the final contents were 2 mg copper and 10 mg zinc/kg of food.
Zinc vs. TM therapy mouse doxorubicin study. The zinc depot method involved injecting subcutaneously a 20 mg zinc/mL of corn oil suspension to achieve a dose of 110 mg of zinc/kg of mouse weight, weekly. With this method, Cp levels were lowered to target range in 4 weeks. Cp levels were lowered with TM in a second group of mice by using 0.015 mg/ml of TM in the drinking water, and changing the drinking water every day.
20 male mice were divided into four equal groups, 5 to receive depot zinc and then DXR, 5 to receive TM in the drinking water and then DXR, 5 to receive DXR only, and 5 to serve as controls. After Cp levels had been lowered in the first two groups, the first three groups of mice received DXR intraperitoneally at a single dose of 20 mg/kg body weight. Since DXR toxicity inhibits mice from drinking water, after DXR administration, TM mice were treated with a daily gavage of 0.2 mg of TM in 0.1 ml of water. Four days after DXR, all mice were sacrificed, and Cp, troponin I, creatine kinase (CK) MB, and lactic dehydrogenase (LDH) levels were all measured in the plasma according to previously described methods.
as §1, §2

DXR toxicity = assay: TM therapy copper supplementation doxorubicin study; format: in vivo, mice
Protocol: as §3
TM therapy copper supplementation doxorubicin study. In order to verify that the effect of TM in the DXR study was due to lowering copper, a study of DXR toxicity was done in which a TM treated group was supplemented with excess copper. In this study, 20 mice were divided into four equal groups, 5 to receive 0.015 mg/ml of TM in the drinking water to lower Cp and then receive DXR (TM was given by gavage after DRX), 5 to receive TM in the same dose and manner as the first group but the diet was supplemented with either 30 or 100 ppm copper such that the Cp didn't fall as far as with TM alone, and then they received DXR, 5 to receive DXR only, and 5 served as controls. After Cp was decreased in the first group, DXR in an intraperitoneal dose of 20 mg/kg body weight was given to the first three groups of mice. Four days after DXR the mice were sacrificed and serum Cp, troponin I, and LDH determined.
as §1, §2

[3] = system: myocardial toxicity resulting from administration of doxorubicin HCl; settings: administered contemporaneously with doxorubicin HCl; cited from earlier work
[4] = Solubility and storage stability of TM salts; format: physicochemical
Text: In some embodiments, the salt of TM is an ammonium salt. […] Thus, the bulk drug should be stored in the absence of oxygen, or the oxygen will gradually exchange with the sulfur, rendering the drug ineffective over time. The bulk drug is therefore stored under argon.
Thus, other salts have been prepared and evaluated for solubility, stability and anticopper activity. […] In other embodiments, the salt choline TM has suitable desirable properties. In yet other embodiments, the salt tetraethyl TM has suitable properties. These exemplary salts of TM have suitable solubility in water, and behave similarly to ammonium salt of TM in in vitro copper complexing studies.

doxorubicin toxicity = settings: mice, previously found; cited from earlier work
[5] = stability assays developed by the inventors (Brewer et al. 1991); cited from earlier work
[6] = 4 days after DXR, vs DXR controls

Compound: CC(C)(S)[C@@H](N)C(=O)O [penicillamine, reference compound]
- neurological worsening during initial treatment (Wilson's disease; Wilson's disease, share of the time): 50%

Compound: [Mo] [Mo, molybdenum]
- toxicity of high doses (Wilson's disease; human, in vivo): without toxicity

Compound: NCCNCCNCCN [trientine]
- effect on LDH ([1]; FIG. 5B): no protective effect
- effect on CK-MB ([1]; FIG. 5C): no protective effect
- effect on Troponin 1 ([1]; FIG. 5D): statistically insignificant effect
- Cp at day 4 (4 days after DXR) ([1]; continued trientine therapy by oral gavage, FIG. 5A): increased into the normal range
- Cp at day 0 (when DXR is given) ([1]; pretreated by oral gavage, FIG. 5A): down significantly, into the target range

Compound: [SH-].[SH-].[S]=[Mo]=[S] [TM, tetrathiomolybdate]
- plasma Cp at day 4 (day of sacrifice), increase after DXR ([2]; 4 days after DXR 20 mg/kg i.p., FIG. 1): almost completely prevented
- day 4 troponin I plasma level [2, 6]: statistically significant effect on maintaining a lower troponin I
- day 4 CK MB plasma level [2, 6]: statistically significantly lower value than DXR controls
- day 4 LDH plasma level ([2]; 4 days after DXR, vs DXR controls, FIG. 4): statistically significant effect on maintaining lower values than DXR controls
- plasma Cp at day 0 (day of DXR administration) ([2]; FIG. 1): equal suppression of Cp
- protection against cardiac damage, comparison with zinc ([2]; similar levels of copper lowering at the time of doxorubicin exposure): much more effective than zinc
- protection of the heart against doxorubicin toxicity, comparison with trientine ([1]; same animal model): much more effective than trientine
- Cp value on day zero (day of DXR administration) (DXR toxicity; group average, DXR only group about 25 U/L): about 12 U/L
- plasma LDH at day 4 after DXR (DXR toxicity; vs DXR only animals, FIG. 6): statistically significantly lower than in the DXR only animals
- mean troponin I level at day 4 after DXR (DXR toxicity; vs DXR only animals, FIG. 7): less than half of the DXR only animals
- toxicity in humans (Wilson's disease; Wilson's disease work): extremely low level of toxicity
- effect on neurological worsening during initial treatment (Wilson's disease; Wilson's disease): prevents the neurological worsening

Compound: C[C@@H](CN1CC(=O)NC(=O)C1)N1CC(=O)NC(=O)C1 [dexrazoxane, (S)-(+)-bis-4,4′-(1-methyl-1,2-ethanediyl)2,6-piperazinedione]
- effect on myocardial toxicity of doxorubicin HCl [3]: can reduce or prevent the myocardial toxicity

Compound: CCC[N+](CCC)(CCC)CCC.CCC[N+](CCC)(CCC)CCC.[S]=[Mo](=[S])([S-])[S-] [TPTM, tetrapropyl tetrathiomolybdate]
- solubility, stability and anticopper activity, overall [4]: has met all desired properties

Compound: [Zn] [zinc, reference compound]
- day 4 troponin I plasma level [2, 6]: somewhat lower mean value than controls, but it didn't reach statistical significance
- day 4 CK MB plasma level [2, 6]: no effect
- plasma Cp at day 0 (day of DXR administration) ([2]; FIG. 1): equal suppression of Cp
- time until Cp levels lowered to target range ([2]; zinc depot s.c. 110 mg zinc/kg weekly): 4 weeks
- effect on doxorubicin toxicity (doxorubicin toxicity): attenuates doxorubicin toxicity

Compound: [NH4+].[NH4+].[SH-].[SH-].[S]=[Mo]=[S] [TM as the ammonium salt]
- solubility in water [4]: moderately water soluble
- stability in air ([4]; bulk drug): mild air instability
- stability in capsules ([4]; room temperature): stable in capsules for several months at room temperature
- stability of bulk drug under argon [5]: stable for several years under argon

— patent publication US20080213396A1, “Copper Lowering Treatment Of Cardiac Disease” (The Regents of the University of Michigan, priority 2007, published 2008)
